Test results from patent publication US20200216454A1, “BIFUNCTIONAL MOLECULES FOR HER3 DEGRADATION AND METHODS OF USE” (Dana-Farber Cancer Institute, Inc., priority 2016, published 2020).

Key:
Her3 [1] = biological target: T1, Her3 (Homo sapiens, UniProt P21860); test: Her3 protein degradation by Western blot; format: cell-based; set-up: endogenous in cells; host or cells: PC9-GR4; Ovacar 8; key: (+): Her3 protein was degraded; (−): Her3 protein was not degraded; details: PC9-GR4 or Ovacar 8 cell lines, 2 μM, 4 hour and 8 hour
Experimental: Cells are seeded at the desired density the day before treatment starts with bifunctional compounds of the application at various concentration. After 4 to 12 hrs, cells are washed with buffer and lysed. The lysates are centrifuged and the supernatant is collected. Protein concentrations are measured using a protein assay kit, such as the BCA protein assay kit, Pierce, catalog number 23225) and normalized. Samples are run on a SDS-PAGE gel, and transferred to a PVDF membrane. The PVDF membrane is probed with the appropriate antibody.
Her3 protein degradation was assessed by Western blots after treatment of PC9-GR4 cell lines or Ovacar 8 cell lines with 2 μM of representative compounds for 4 hour and 8 hour.
Cells were seeded at a density of […] per 6 cm plate the day before treatment started with representative compounds of the application at the indicated concentration. After 4 to 12 hours, cells were washed with phosphate-buffered saline. Lysis buffer included 50 mM Tris-HCl, 150 mM NaCl, 1% NP-40, and 5 mM EDTA, pH 7.4+/−0.2, Roche PhosSTOP phosphatase inhibitor cocktail tablets and Roche Complete Protease inhibitor cocktail tablets. Cell lysis was accomplished by the addition of lysis buffer for 5-10 minutes on ice. Lysates were centrifuged in a microcentrifuge at 14,000 r.p.m. for 15 minutes at 4° C. and the supernatant was collected. Protein concentrations were measured using BCA protein assay kit (Pierce, catalog number 23225) and normalized. Samples were run on a 4%-12% SDS-PAGE gel at 120 V. After transfer, the PVDF membrane was probed with anti-Her3 antibody, Santa Cruz, catalog number sc-285 at 1:1000 dilution.
Target sequence in this assay (P21860 20-1342): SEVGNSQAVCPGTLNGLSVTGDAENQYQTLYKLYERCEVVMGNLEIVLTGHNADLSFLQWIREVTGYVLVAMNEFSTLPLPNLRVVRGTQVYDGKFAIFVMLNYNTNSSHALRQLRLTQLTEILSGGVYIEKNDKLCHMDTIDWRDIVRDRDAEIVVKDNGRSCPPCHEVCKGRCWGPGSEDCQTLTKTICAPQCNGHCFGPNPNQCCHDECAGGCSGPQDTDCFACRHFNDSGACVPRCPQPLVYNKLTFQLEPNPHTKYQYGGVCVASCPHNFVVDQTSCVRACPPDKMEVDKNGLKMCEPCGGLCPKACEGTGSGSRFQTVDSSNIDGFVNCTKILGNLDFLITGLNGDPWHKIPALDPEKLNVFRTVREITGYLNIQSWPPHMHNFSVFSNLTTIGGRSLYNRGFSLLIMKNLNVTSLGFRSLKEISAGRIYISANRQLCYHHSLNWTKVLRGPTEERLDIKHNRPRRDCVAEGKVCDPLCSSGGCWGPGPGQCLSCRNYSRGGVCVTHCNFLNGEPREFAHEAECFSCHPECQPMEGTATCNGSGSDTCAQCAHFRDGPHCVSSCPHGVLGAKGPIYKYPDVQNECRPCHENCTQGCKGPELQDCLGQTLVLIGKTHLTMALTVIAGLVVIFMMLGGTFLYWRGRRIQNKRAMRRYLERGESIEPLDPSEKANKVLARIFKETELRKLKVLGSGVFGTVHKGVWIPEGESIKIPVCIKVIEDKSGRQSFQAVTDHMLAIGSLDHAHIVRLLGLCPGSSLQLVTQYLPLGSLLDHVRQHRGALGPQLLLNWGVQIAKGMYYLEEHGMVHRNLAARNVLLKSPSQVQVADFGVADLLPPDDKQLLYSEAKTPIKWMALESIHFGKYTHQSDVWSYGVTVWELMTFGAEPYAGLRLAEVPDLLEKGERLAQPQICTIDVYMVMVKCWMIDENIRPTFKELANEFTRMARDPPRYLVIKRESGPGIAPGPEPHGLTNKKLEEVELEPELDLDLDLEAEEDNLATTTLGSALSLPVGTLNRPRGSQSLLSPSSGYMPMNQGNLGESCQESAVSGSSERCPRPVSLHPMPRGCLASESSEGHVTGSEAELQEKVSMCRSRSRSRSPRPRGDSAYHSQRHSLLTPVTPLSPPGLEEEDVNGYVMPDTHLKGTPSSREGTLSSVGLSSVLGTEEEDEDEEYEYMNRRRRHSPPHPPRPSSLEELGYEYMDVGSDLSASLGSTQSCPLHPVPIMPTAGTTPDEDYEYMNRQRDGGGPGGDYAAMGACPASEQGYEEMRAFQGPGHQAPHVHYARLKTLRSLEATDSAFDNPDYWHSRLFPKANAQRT

Ovacar 8 = test: Anti-proliferation MTS assay, Ovacar 8; format: cell-based; details: 72 h, Ovacar 8 cells, 3 days, read-out: Cell lines (EC50, μM) Ovacar 8
Experimental: (§1) Cells are seeded and incubated for 3 d after bifunctional compounds of the application are added. Cell viability is measured via MTS Assay. This assay uses a colorimetric method to determine the number of viable cells based on the bioreduction of MTS by cells to a formazan product that is soluble in cell culture medium and can be detected spectrophotometrically. In a typical experiment, the supernatant is removed and replaced by 100 μl of RPMI media supplemented with MTS reagent and PMS. The plates are measured with Perkin Elmer EnVision after reaching an optical density (OD) of 1.0-2.0 at a wavelength of 490 nm. The cell numbers are normalized compared to DMSO control, and the EC50 values are calculated using GraphPad Prism.
(§2) Five cell lines, PC9-GR4, 826-GR6, Ovacar 8, A549, and Ovacar 5 were grown and treated with representative compounds Viability of the cells after the treatment was assessed by MTS assay.
(§3) The anti-proliferation assay was carried out using 96-well clear bottom plates. […] Cell viability was measured via MTS Assay. This assay uses a colorimetric method to determine the number of viable cells based on the bioreduction of MTS by cells to a formazan product that is soluble in cell culture medium and can be detected spectrophotometrically. […] The plates were measured with Perkin Elmer EnVision after reaching an optical density (OD) of 1.0-2.0 at a wavelength of 490 nm. […]

826-GR6 = test: Anti-proliferation MTS assay, 826-GR6; format: cell-based; details: 72 h, 826-GR6 cells, 3 days, read-out: Cell lines (EC50, μM) 826-GR6
Experimental: as §1, §2, §3

PC9-GR4 = test: Anti-proliferation MTS assay, PC9-GR4; format: cell-based; details: 72 h, PC9-GR4 cells, 3 days, read-out: Cell lines (EC50, μM) PC9-GR4
Experimental: as §1, §2, §3

A549 = test: Anti-proliferation MTS assay, A549; format: cell-based; details: Homo sapiens, 72 h, A549 cells, 3 days, read-out: Cell lines (EC50, μM) A549
Experimental: as §1, §2, §3

Ovacar 5 = test: Anti-proliferation MTS assay, Ovacar 5; format: cell-based; details: 72 h, Ovacar 5 cells, 3 days, read-out: Cell lines (EC50, μM) Ovacar 5
Experimental: as §1, §2, §3

Her3 [2] = biological target: T1, Her3; test: LanthaScreen Eu kinase binding assay; set-up: purchased Life Technologies; details: read-out: Binding Affinities (IC50)
Experimental: Lantha screening is performed by following the method reported in Nature Chemical Biology, 10, 1006-1012 (2014).
Binding affinities (IC50) of representative compounds were measured by the Life Technologies LanthaScreen Eu kinase binding assay, which was previously described (Xie T. et al., Nat. Chem. Biol. 2014, 10, 1006-1012).
Lantha screening was performed by following the method reported in Nature Chemical Biology, 10, 1006-1012 (2014).
Target sequence in this assay (P21860 20-1342, species assumed): as the sequence (P21860 20-1342) above

SMILES | Her3 Degradation (Her3 [1]) | IC50 (Her3 [2]) | further results
C=CC(=O)Nc1cc(-c2nn(C3CCN(CC(=O)NCCCCNC(=O)COc4cccc5c4C(=O)N(C4CCC(=O)NC4=O)C5=O)CC3)c3ncnc(N)c23)ccc1Oc1ccccc1 (stereo not drawn) [Compound PP3] | + |  | 
C=CC(=O)Nc1cc(-c2nn(C3CCN(CC(=O)NCCCCCCCCNC(=O)COc4cccc5c4C(=O)N(C4CCC(=O)NC4=O)C5=O)CC3)c3ncnc(N)c23)ccc1Oc1ccccc1 (stereo not drawn) [Compound PP4] | + |  | EC50 (Ovacar 8): 5 to 15 µM
C=CC(=O)Nc1cc(-c2nn(C3CCN(CC(=O)NCCCOCCOCCOCCCNC(=O)COc4cccc5c4C(=O)N(C4CCC(=O)NC4=O)C5=O)CC3)c3ncnc(N)c23)ccc1Oc1ccccc1 (stereo not drawn) [Compound PP5] | − |  | 
Nc1ncnc2c1c(-c1ccc(Oc3ccccc3)c([N+](=O)[O-])c1)nn2C1CCN(CC(=O)NCCOCCOCCOCCNC(=O)COc2cccc3c2C(=O)N(C2CCC(=O)NC2=O)C3=O)CC1 (stereo not drawn) [Compound PP6] | − | 0.01 to 0.1 µM | 
Nc1ncnc2c1c(-c1ccc(Oc3ccccc3)c([N+](=O)[O-])c1)nn2C1CCN(CC(=O)NCCCCNC(=O)COc2cccc3c2C(=O)N(C2CCC(=O)NC2=O)C3=O)CC1 (stereo not drawn) [Compound PP7] | − | 0.01 to 0.1 µM | 

The next lines start with results.

Her3 Degradation (Her3 [1]) | IC50 (Her3 [2]) | SMILES | further results
− |  | C=CC(=O)Nc1cc(-c2nn(C3CCN(CCOCCOCCOCCC(=O)N[C@@H](C(=O)N4C[C@@H](O)C[C@@H]4C(=O)NCc4ccc(-c5scnc5C)cc4)C(C)(C)C)CC3)c3ncnc(N)c23)ccc1Oc1ccccc1 [Compound PP1] | 
+ |  | C=CC(=O)Nc1cc(-c2nn(C3CCN(CC(=O)N[C@@H](C(=O)N4C[C@@H](O)C[C@@H]4C(=O)NCc4ccc(-c5scnc5C)cc4)C(C)(C)C)CC3)c3ncnc(N)c23)ccc1Oc1ccccc1 [Compound PP2] | EC50 (Ovacar 8): < 5 µM; EC50 (826-GR6): 5 to 15 µM; EC50 (PC9-GR4): 5 to 15 µM; EC50 (A549): 5 to 15 µM; EC50 (Ovacar 5): 5 to 15 µM
+ | > 0.1 µM | Cc1ncsc1-c1ccc(CNC(=O)[C@@H]2C[C@@H](O)CN2C(=O)[C@@H](NC(=O)CCOCCOCCOCCN2CCC(n3nc(-c4ccc(Oc5ccccc5)c([N+](=O)[O-])c4)c4c(N)ncnc43)CC2)C(C)(C)C)cc1 [Compound PP8] | EC50 (PC9-GR4): > 15 µM
